Results from patent US11365217B2, “Peptides for treating telomere dysfunction-associated diseases and uses thereof” (priority 2018, dated 2022).
Entries after “also recorded” stand apart in the source; their conditions may differ. Non-standard residues stand in square brackets, D forms with d. No end group written: not given here.

Legend:
[1] = test system: Human cervical carcinoma cells Hela; experiment: Telomere DNA damage in Hela cells under X-ray irradiation, detected by FISH; assay type: cell-based; settings: peptide 4 h; for telomere DNA damage caused by irradiation of X rays: 5-Gy X ray for 1 h
Procedure: Human cervical carcinoma cells Hela were respectively treated with various peptides (as shown in SEQ ID NOs:1-26 in Table 1) for 4 h, and then the cells treated with the same peptide were divided into two groups, which were respectively subjected to 0-Gy and 5-Gy irradiation of X ray for 1 h and detected for telomere DNA damage using fluorescence in situ hybridization (FISH).

[2] = test system: carbon tetrachloride-induced liver fibrosis in C57BL/6 mice; experiment: DST8 in carbon tetrachloride-induced liver fibrosis in mice; assay type: in vivo; settings: 1 mg/kg intraperitoneal weekly, 4 weeks, Masson staining and Western Blot, control GE8
Procedure: 12 6 week old wild female C57BL/6 mice were equally divided into four groups, where two groups of mice were intraperitoneally injected with a solution of 10% carbon tetrachloride in olive oil three times a week (on every Monday, Wednesday and Friday, 5 μL per gram of body weight), and the other two groups of mice were intraperitoneally injected with an equal amount of olive oil as control. The two groups injected with carbon tetrachloride were intraperitoneally injected with DST8 (SerArgAsnGlyThrGluGluThr, in D-amino acids), 1 mg per kilogram of body weight) and GE8 (SEQ ID NO:24), respectively, 4 hours before the first injection of carbon tetrachloride in each week. The two control groups were also intraperitoneally injected with DST8 (1 mg per kilogram of body weight) and GE8, respectively, 4 hours before the first injection of olive oil in each week. After 4 consecutive weeks of administration, the liver was isolated, embedded with paraffin, sectioned and subjected to Masson staining and Western Blot analysis.

[3] = test system: mice with overexpression of FBW7 in lung tissues; experiment: ST8 in mice intratracheally perfused with FBW7-lentivirus (overexpression of FBW7 in lung); assay type: in vivo; settings: control GE8
Procedure: 4 hours later, the two groups of mice perfused with ST8 were respectively intratracheally perfused with a control- or FBW7-lentivirus, and the two groups of mice perfused with GE8 were also respectively intratracheally perfused with the control- or FBW7-lentiviruses. The perfusion was performed every other 4 days in a total number of 4. On the fourth day after the fourth perfusion, the mice were subjected to endotracheal intubation for the detection of respiratory function. The type II cells were sorted by flow cytometry and calculated for the proportion. The lung tissue RNA was extracted and subjected to real-time quantitative PCR for the detection of mRNA expression of α-SMA, Col6a, and MMP3, and the lung proteins were also extracted and detected by Western Blot for the expression of FBW7, TPP1, SPC, α-SMA and internal reference GAPDH. The lung tissues were embedded with paraffin, sectioned, subjected to Masson and H&E staining and detected by immunofluorescence assay for the expression of α-SMA. Moreover, the proportion of lung type II epithelial cells (SPC positive cells) was obtained by immunofluorescence assay; and the telomere length of type II cells (SPC+telomere probe) was detected by FISH.

[4] = test system: bleomycin-induced pulmonary fibrosis in mice; experiment: ST8 in bleomycin-induced pulmonary fibrosis in mice (intratracheal perfusion); assay type: in vivo
Procedure: 4 hours later, the mice were all intratracheally perfused with bleomycin (3 mg per kilogram of body weight), and 21 days after the perfusion of peptide, the mice were subjected to endotracheal intubation for the detection of respiratory function. The type II cells were sorted by flow cytometry and calculated for the proportion. The lung tissue RNA was extracted and subjected to real-time quantitative PCR for the detection of mRNA expression of NG2, […], s100a4, α-SMA and Col6a, and the lung proteins were also extracted and detected by Western Blot for the expression of FBW7, TPP1, α-SMA and internal reference GAPDH. The lung tissues were embedded with paraffin, sectioned, subjected to Masson and H&E staining and detected by immunofluorescence assay for the expression of α-SMA. Moreover, 10 mg of lung tissues were employed for the determination of hydroxyproline content; and the telomere length of type II cells (SPC+telomere probe) was detected by FISH.

[5] = test system: mice under X-ray irradiation; experiment: DYK21 applied to dorsal skin of mice with or without X-ray irradiation (skin aging, weight loss, premature death)
Description: 48 2-4 month old wild mice were equally divided into four groups, and the hair in a 2 cm×2 cm region on the back of each of the mice was removed. […] The mice were photographed and weighed every day, and sacrificed on the 8th day to collect the skin tissues.

[6] = test system: bleomycin-induced pulmonary fibrosis in mice; experiment: YK21 in bleomycin-induced pulmonary fibrosis in mice (intratracheal perfusion); assay type: in vivo
Procedure: The time program of this experiment was shown in FIG. 1E, specifically, 4 hours later, the mice were all intratracheally perfused with bleomycin (3 mg per kilogram of body weight), and 20 hours after the perfusion of bleomycin, two groups of mice were respectively received a second perfusion of YK21 and a second perfusion of YK21h. After 21 days of the first perfusion of peptide, the mice were all subjected to endotracheal intubation for the detection of respiratory function, and the lung tissue RNA was extracted and subjected to real-time quantitative PCR to detect the mRNA expression of TPP1 and SPC. The lung tissues were embedded with paraffin, sectioned, subjected to Masson and H&E staining and detected by immunofluorescence assay for the expression of α-SMA. Moreover, 10 mg of lung tissues were employed for the determination of hydroxyproline content; and the telomere length of alveolar epithelial type II stem cells (SPC+telomere probe) and the telomere DNA damage in lung tissues (53BP1+telomere probe) were detected by FISH.

[7] = dorsal skin application 7 days, 4-Gy X-ray daily, compared to DCTL1
[8] = lung tissue mRNA, real-time quantitative PCR, bleomycin mice, vs YK21h

## KTEETGNRSGRRRQRRKKRGY [DKY21]
[1]
  telomere DNA damage caused by irradiation of X rays: inhibitory effect

## SRNGTEET [DST8]
[2]
  liver fibrosis caused by carbon tetrachloride: prevent the liver fibrosis; also recorded: significantly inhibit

## SRNGTEET [ST8]
[3]; 1 mg/kg intratracheal, FBW7-lentivirus perfused 4 times
  respiratory dysfunction caused by the overexpression of FBW7: significant role in alleviating
[3]; FBW7-lentivirus mice
  decrease in the proportion of type II epithelial cells caused by the overexpression of FBW7: significant role in alleviating
  pulmonary fibrosis caused by the overexpression of FBW7: significant role in alleviating
  reduction in the expression of TPP1 caused by the overexpression of FBW7: significant role in alleviating
[3]; FISH, FBW7-lentivirus mice
  telomere shortening caused by the overexpression of FBW7: significant role in alleviating
[4]; 1 mg/kg intratracheal, bleomycin 3 mg/kg, day 21, control GE8
  respiratory dysfunction in mice caused by bleomycin: alleviate
[4]; FISH, bleomycin mice, control GE8
  telomere length of type II cells: extend the telomere
[4]; Masson, H&E, α-SMA, fibrosis marker mRNA, control GE8
  bleomycin-induced pulmonary fibrosis in mice: inhibitory effect
[4]; Western Blot, bleomycin mice, control GE8
  FBW7 expression in lung: inhibit FBW7
[4]; flow cytometry, bleomycin mice, control GE8
  proportion of lung type II epithelial cells: improved
[1]
  telomere DNA damage caused by irradiation of X rays: significantly inhibiting

## TyrGlyArgLysLysArgArgGluArgArgArgGlySerArgAsnGlyThrGluGluThrLys [DYK21] ([dY]G[dR][dK][dK][dR][dR][dE][dR][dR][dR]G[dS][dR][dN]G[dT][dE][dE][dT][dK])
[5]; H&E and Masson staining, 4-Gy X-ray daily for 7 days, vs DCTL1
  skin damage and fibrous tissue proliferation (skin fibrosis) caused by X-ray irradiation: completely free of skin fibrosis; also recorded: significant inhibitory effect
[5]; application to the dorsal skin of mice
  number of dermal stem cells: significant increase
[5]; application to the dorsal skin of mice, irradiation not mentioned
  number of hair follicles: significant increase
[5]; compared to DCTL1
  acute death caused by X-ray irradiation: alleviated the acute death to some extent
  life span under X-ray irradiation: prolonged the life of some mice
  weight loss caused by X-ray irradiation: inhibited the weight loss
[5]; [7]
  body weight: larger in body weight
  number of hair follicles: more hair follicles
[5]; skin, X-ray irradiation, vs DCTL1
  fibrosis area: smaller fibrosis area
[1]
  telomere DNA damage caused by irradiation of X rays: inhibitory effect

## YGRKKRRERRRGSRNGTEETK
[6]; 1 mg/kg intratracheal, bleomycin 3 mg/kg, day 21, compared to control peptide YK21h
  respiratory function in mice: improve the lung respiratory function; also recorded: significantly improve
[6]; 1 mg/kg intratracheal, bleomycin 3 mg/kg, day 21, hydroxyproline, Masson, H&E, α-SMA, vs YK21h
  pulmonary fibrosis induced by bleomycin: prevent the lung aging damage and pulmonary fibrosis; also recorded: inhibit
[6]; FISH (SPC+telomere probe), bleomycin mice, vs YK21h
  telomere length of type II epithelial cells: extend telomere length; also recorded: increase
[6]; intratracheal administration to mice in one time
  number of lung stem cells: increase the number of lung stem cells
[6]; [8]
  expression of SPC: increase
  expression of TPP1: increase
[1]; 0-Gy
  telomere DNA damage at a basic level: significantly reduce
[1]
  telomere DNA damage caused by irradiation of X rays: completely inhibit
